Several values for one entry are separate records, joined by “and”; a condition that tells them apart may be missing. Equal entries are not always repeated. Where two headings read alike, the source gives them in different places. Bridge positions count the residues as written; N and C are the ends. Square brackets hold non-standard residues; d marks the D form. Peptide text beside a SMILES is read from it. * marks the point of attachment. X1 = C=CCN1CC[C@]23c4c5ccc(O)c4O[C@H]2[C@H](N*)CC[C@@]3(O)[C@H]1C5
Key:
mouse KOR, GαoA = mouse KOR, GαoA (Mus musculus, UniProt P33534); assay: TRUPATH BRET G protein assay, GαoA; format: cell-based; details: read-out: Emax (%) GαoA
Sequence of mouse KOR, GαoA (P33534 whole entry): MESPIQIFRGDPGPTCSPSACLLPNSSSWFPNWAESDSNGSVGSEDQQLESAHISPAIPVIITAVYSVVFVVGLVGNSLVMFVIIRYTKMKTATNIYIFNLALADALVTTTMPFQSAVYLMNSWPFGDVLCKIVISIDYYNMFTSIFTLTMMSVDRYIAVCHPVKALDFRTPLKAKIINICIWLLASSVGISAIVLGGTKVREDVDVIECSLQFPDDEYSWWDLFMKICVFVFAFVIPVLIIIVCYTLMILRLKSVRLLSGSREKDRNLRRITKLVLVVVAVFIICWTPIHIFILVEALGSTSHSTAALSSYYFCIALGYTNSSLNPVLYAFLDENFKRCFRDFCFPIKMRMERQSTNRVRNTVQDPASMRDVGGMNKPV
Sequence of mouse KOR, GαoA (P09471 2-354 partner): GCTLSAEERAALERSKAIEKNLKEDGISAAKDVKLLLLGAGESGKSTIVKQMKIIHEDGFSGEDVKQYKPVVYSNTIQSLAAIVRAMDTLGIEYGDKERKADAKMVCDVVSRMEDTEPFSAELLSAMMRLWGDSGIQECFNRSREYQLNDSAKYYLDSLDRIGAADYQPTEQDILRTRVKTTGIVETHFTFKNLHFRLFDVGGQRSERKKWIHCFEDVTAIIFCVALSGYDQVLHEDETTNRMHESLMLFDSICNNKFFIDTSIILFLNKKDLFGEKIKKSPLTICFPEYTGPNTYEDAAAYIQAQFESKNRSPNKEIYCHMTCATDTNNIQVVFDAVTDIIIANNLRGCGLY

male SWISS mice [1] = assay: Formalin test (pain behavior, phase II); format: in vivo, mouse; details: for Formalin test (duration of pain behaviour): individual mice, listed as DNCP-ß-NalA (1)
human KOR D138A = target: T1, human KOR D138A (Homo sapiens, UniProt P41145, D138A); assay: cAMP inhibition assay normalized to salvinorin A; format: cell-based
T1 construct: expressed in transfected cells
T1 sequence (P41145 whole entry D138A): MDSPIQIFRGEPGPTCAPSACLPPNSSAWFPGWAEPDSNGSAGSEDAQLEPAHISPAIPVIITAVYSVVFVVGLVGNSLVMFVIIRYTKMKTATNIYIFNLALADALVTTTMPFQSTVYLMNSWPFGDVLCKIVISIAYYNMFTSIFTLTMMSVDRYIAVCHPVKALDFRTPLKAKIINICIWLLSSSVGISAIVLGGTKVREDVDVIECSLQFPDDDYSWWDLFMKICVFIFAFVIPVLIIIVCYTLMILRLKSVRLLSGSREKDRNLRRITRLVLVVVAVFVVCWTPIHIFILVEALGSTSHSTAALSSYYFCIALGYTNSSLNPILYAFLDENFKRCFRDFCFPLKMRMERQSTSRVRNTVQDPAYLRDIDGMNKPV

human KOR WT [2] = target: T2, human KOR WT (Homo sapiens, UniProt P41145); format: cell-based; details: HEK-293T, KOR WT
T2 construct: FLAG; expressed in transfected cells; host or cells: HEK293T, transient
T2 sequence (P41145 whole entry): as the sequence (P41145 whole entry D138A) above, with A138D counted along it

mouse KOR, Gαgustducin = mouse KOR, Gαgustducin (Mus musculus, UniProt P33534); assay: TRUPATH BRET G protein assay, Gαgustducin; format: cell-based; details: read-out: Emax (%) Gαgustducin
Sequence of mouse KOR, Gαgustducin (P33534 whole entry): as the sequence (P33534 whole entry) above
Sequence of mouse KOR, Gαgustducin (A8MTJ3 2-354 partner): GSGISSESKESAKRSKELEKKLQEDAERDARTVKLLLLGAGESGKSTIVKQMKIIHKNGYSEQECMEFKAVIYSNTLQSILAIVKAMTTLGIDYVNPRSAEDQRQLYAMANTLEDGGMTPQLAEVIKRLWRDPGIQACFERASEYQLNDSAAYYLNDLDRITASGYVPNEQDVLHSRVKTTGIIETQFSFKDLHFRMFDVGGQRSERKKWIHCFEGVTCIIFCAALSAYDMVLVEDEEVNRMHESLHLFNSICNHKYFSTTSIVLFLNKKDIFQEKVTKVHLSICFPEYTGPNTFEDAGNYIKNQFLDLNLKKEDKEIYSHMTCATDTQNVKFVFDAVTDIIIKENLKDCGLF

human KOR H304A [3] = target: T3, human KOR H304A (Homo sapiens, UniProt P41145, H304A); format: cell-based; details: HEK-293T
T3 construct: FLAG; expressed in transfected cells; host or cells: HEK293T
T3 sequence (P41145 whole entry H304A): as the sequence (P41145 whole entry D138A) above, with A138D, H304A counted along it

human KOR Y320A = target: T4, human KOR Y320A (Homo sapiens, UniProt P41145, Y320A); format: cell-based; details: HEK-293T
T4 construct: FLAG; expressed in transfected cells; host or cells: HEK293 / HEK293T, transient
T4 sequence (P41145 whole entry Y320A): as the sequence (P41145 whole entry D138A) above, with A138D, Y320A counted along it

[4] = Serum stability assay (HPLC)
Experimental: Blood was drawn from healthy volunteers devoid of any medication for 14 days from the antecubital vein using 21 G needles and collected in a serum clot activator tube (4 mL tubes, Greiner bio-one). […] Volunteers gave written informed consent before blood donation. […] Blood samples were collected into Vacuette® clot activator tubes (Greiner Bio-One, Austria). After clotting of about 2 h, the samples were centrifuged at 2200 × g for 15 min at 22 °C. The serum was removed and centrifuged again to remove lipids and cell particles at 16,000 × g at 4 °C for 20 min. […] The samples were incubated at 37 °C under continuous shaking at 300 rotations-per-minute. […] The samples were mixed well and incubated on ice for 10 min. For the protein precipitation, 30 µL of a 20% (w/v) trichloroacetic acid was added and incubated on ice for 15 min. The clear supernatant was harvested by centrifugation at 16,000 × g at 4 °C for 20 min and this sample was used for HPLC analysis. The chromatography HPLC system was a ThermoFisher Ultimate 3000 equipped with a pump, autosampler and single wavelength detector. […] The remaining peptide was calculated relative to the AUC at time point zero. The data points were fitted to a one-phase decay function and to determine the resulting half-life of the peptide in serum.
0.1% trifluoroacetic acid in water and acetonitrile/water trifluoroacetic acid 90/10/0.1% (v/v/v) with a
linear separation gradient over 30 min.

human KOR [5] = target: T5, human KOR (Homo sapiens, UniProt P41145); assay: cell-based; parameters: expressed in transfected cells; host or cells: HEK293, transient; details: HEK293, read-out: Emax β-arrestin-1 recruitment
T5 sequence (P41145 whole entry): as the sequence (P41145 whole entry D138A) above, with A138D counted along it

mouse KOR [6] = target: T6, mouse KOR (Mus musculus, UniProt P33534); assay: cell-based; parameters: expressed in transfected cells; details: HEK-293T, read-out: Emax cAMP assay
Target sequence in this assay (P33534 whole entry): as the sequence (P33534 whole entry) above

human KOR [7] = target: T5, human KOR; assay: [35S]GTPγS binding assay, CHO membranes; format: biochemical; parameters: expressed in transfected cells
human KOR M142A = target: T7, human KOR M142A (Homo sapiens, UniProt P41145, M142A); assay: BRET β-arrestin-2 biosensor assay; format: cell-based
T7 construct: FLAG; expressed in transfected cells; host or cells: HEK293 / HEK293T, transient
T7 sequence (P41145 whole entry M142A): as the sequence (P41145 whole entry D138A) above, with A138D, M142A counted along it

human KOR H304A [8] = target: T3, human KOR H304A; assay: BRET β-arrestin-2 biosensor assay; format: cell-based
human KOR I135A = target: T8, human KOR I135A (Homo sapiens, UniProt P41145, I135A); format: cell-based; details: HEK-293T
T8 construct: FLAG; expressed in transfected cells; host or cells: HEK293 / HEK293T, transient
T8 sequence (P41145 whole entry I135A): as the sequence (P41145 whole entry D138A) above, with I135A, A138D counted along it

human KOR WT [9] = target: T2, human KOR WT; assay: BRET β-arrestin-2 biosensor assay; format: cell-based; details: KOR WT
male SWISS mice [10] = assay: CFA-induced inflammatory hyperalgesia, Hargreaves test; format: in vivo, mouse; details: for CFA-induced inflammatory hyperalgesia (paw withdrawal latency): individual mice, listed as DNCP-ß-NalA (1)
Experimental: CFA-induced inflammatory hyperalgesia was induced in male SWISS mice (8–10 weeks old, 30–35 g body weight, n = 53 mice) by s.c. injection of 20 µL emulsified CFA (1 mg mL^−1) into the plantar surface of the right hindpaw under brief isoflurane anesthesia. Nociceptive testing was performed 72 h after inoculation with CFA. Hindpaws withdrawal latencies to thermal stimulation were measured using the Hargreaves test[84] with an analgesiometer (Ugo Basile S.R.L., Varese, Italy). Male mice were habituated in individual Plexiglas boxes positioned on a glass surface (Ugo Basile S.R.L., Varese, Italy) for three days prior to the inoculation with CFA. A movable infrared generator (30% intensity) located under the glass floor was focused onto the plantar surface of the hindpaw and switched on to heat. Onset of the radiant stimulus triggered a timer, which was stopped by subsequent paw movement. To prevent tissue damage, a cut-off time of 20 s was imposed. […] The paw withdrawal latencies to thermal stimulus was expressed in seconds.

mouse KOR [11] = target: T6, mouse KOR; assay: cell-based; parameters: expressed in transfected cells; host or cells: HEK293T, transient; details: HEK-293T, read-out: Emax β-arrestin-2 recruitment
Target sequence in this assay (P33534 whole entry): as the sequence (P33534 whole entry) above
Target sequence in this assay (P32121 whole entry partner): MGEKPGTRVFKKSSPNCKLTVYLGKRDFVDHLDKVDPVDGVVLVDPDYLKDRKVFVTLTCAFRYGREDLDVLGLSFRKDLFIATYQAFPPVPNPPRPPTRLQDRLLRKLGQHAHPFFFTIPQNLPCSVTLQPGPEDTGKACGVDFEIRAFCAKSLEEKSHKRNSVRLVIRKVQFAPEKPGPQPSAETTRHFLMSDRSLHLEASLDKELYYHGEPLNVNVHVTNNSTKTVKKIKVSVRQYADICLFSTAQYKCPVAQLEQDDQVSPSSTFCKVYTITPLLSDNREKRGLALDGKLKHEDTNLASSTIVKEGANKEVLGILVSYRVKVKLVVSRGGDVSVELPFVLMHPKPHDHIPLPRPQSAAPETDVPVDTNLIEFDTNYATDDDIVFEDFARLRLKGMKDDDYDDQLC

mouse KOR, Gαi2 = target: T9, mouse KOR, Gαi2 (Mus musculus, UniProt P33534); assay: TRUPATH BRET G protein assay, Gαi2; format: cell-based; details: TRUPATH
T9 construct: expressed in transfected cells; host or cells: HEK293T (ATCC, CRL-3216), transient
T9 sequence (P33534 whole entry): as the sequence (P33534 whole entry) above

mouse KOR, Gαi3 = mouse KOR, Gαi3 (Mus musculus, UniProt P33534); assay: TRUPATH BRET G protein assay, Gαi3; format: cell-based; details: read-out: Emax (%) Gαi3
Sequence of mouse KOR, Gαi3 (P33534 whole entry): as above
Sequence of mouse KOR, Gαi3 (P08754 2-354 partner): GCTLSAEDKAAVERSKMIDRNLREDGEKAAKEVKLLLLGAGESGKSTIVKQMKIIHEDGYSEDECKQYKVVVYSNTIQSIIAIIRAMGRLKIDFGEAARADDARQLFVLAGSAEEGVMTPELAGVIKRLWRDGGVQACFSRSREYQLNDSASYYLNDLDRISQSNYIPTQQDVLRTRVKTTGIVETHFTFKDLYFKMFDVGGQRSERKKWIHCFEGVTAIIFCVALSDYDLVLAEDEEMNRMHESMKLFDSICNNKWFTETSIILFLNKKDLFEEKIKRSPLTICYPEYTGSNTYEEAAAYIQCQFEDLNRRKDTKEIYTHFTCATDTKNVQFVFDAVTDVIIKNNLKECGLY

human MOR = target: T10, human MOR (Homo sapiens, UniProt P35372); assay: [35S]GTPγS binding assay, CHO membranes; format: biochemical; details: [35S]GTPγS
T10 construct: expressed in transfected cells
T10 sequence (P35372 whole entry): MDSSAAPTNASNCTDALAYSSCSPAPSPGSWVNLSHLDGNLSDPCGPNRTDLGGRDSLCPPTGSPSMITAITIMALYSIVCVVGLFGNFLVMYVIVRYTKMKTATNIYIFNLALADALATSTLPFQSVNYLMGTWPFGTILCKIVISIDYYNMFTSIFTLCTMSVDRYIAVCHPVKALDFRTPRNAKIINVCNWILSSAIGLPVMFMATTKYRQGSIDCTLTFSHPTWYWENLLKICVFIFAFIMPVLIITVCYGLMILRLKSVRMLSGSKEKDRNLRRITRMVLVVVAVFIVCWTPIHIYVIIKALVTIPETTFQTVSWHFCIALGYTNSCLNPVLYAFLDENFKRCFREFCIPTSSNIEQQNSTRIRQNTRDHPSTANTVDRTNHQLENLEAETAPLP

human KOR F293A = target: T11, human KOR F293A (Homo sapiens, UniProt P41145, F293A); format: cell-based; details: HEK-293T
T11 construct: FLAG; expressed in transfected cells; host or cells: HEK293 / HEK293T, transient
T11 sequence (P41145 whole entry F293A): as the sequence (P41145 whole entry D138A) above, with A138D, F293A counted along it

## C=CCN1CC[C@]23c4c5ccc(O)c4O[C@H]2[C@H](NC(=O)[C@@H](Cc2ccccc2)NC(=O)[C@@H](NC(=O)[C@@H]2CSCC(=O)N[C@@H](Cc4ccc(O)cc4)C(=O)N[C@@H](C)C(=O)N[C@H](Cc4ccc(O)cc4)C(=O)N[C@@H]([C@@H](C)O)C(=O)N[C@@H]([C@@H](C)O)C(=O)N2)[C@@H](C)O)CC[C@@]3(O)[C@H]1C5 [DNCP-β-NalA(1)] ({CH2CO}-YA[dY]TTCT[dF]-X1; thioether N-6)
Mouse KOR, GαoA
  Emax: 56 ± 7%
Male SWISS mice [1]; 0.8 µmol/kg
  Formalin test (duration of pain behaviour): 234 s and 278 s and 189 s and 251 s and 382 s and 247 s
Male SWISS mice [1]; 1.9 µmol/kg
  Formalin test (duration of pain behaviour): 208 s and 50 s and 189 s and 169 s and 167 s and 252 s
Male SWISS mice [1]; nor-BNI 13.6 µmol kg^−1 s.c. pretreatment
  antagonism of antinociception by nor-BNI: significantly reversed the antinociceptive response
Male SWISS mice [1]; s.c., male mice
  antinociceptive ED50: 1.89 µmol/kg
  effect on pain behavior: dose-dependent reduction in the pain behavior
Human KOR D138A; D138A vs WT, authors' response
  reduction of cAMP inhibition potency: 17 fold
Human KOR D138A; KOR D138A, normalized to salvinorin A
  Emax: 105 ± 2.4%
Human KOR WT [2]
  Emax: 85.9 ± 1.2%
Mouse KOR, Gαgustducin
  Emax: 101 ± 5%
Human KOR H304A [3]
  Emax: 92.57 ± 0.43%
Human KOR Y320A
  Emax: 86.8 ± 2.05%
[4]; Time (min) 0
  serum stability, amount remaining, Figure S15: 100
[4]; authors' response in peer review file
  stable in serum: at least 50 h
[4]; human, human serum, serum stability, amount remaining, Figure S15, Time (min) 5
  remaining at 5 min, 50 µM: 94%
[4]; human, human serum, serum stability, amount remaining, Figure S15, Time (min) 10
  remaining at 10 min, 50 µM: 94%
[4]; human, human serum, serum stability, amount remaining, Figure S15, Time (min) 20
  remaining at 20 min, 50 µM: 99%
[4]; human, human serum, serum stability, amount remaining, Figure S15, Time (min) 40
  remaining at 40 min, 50 µM: 96%
[4]; human, human serum, serum stability, amount remaining, Figure S15, Time (min) 60
  remaining at 1 h, 50 µM: 106%
[4]; human, human serum, serum stability, amount remaining, Figure S15, Time (min) 120
  remaining at 2 h, 50 µM: 98%
[4]; human, human serum, serum stability, amount remaining, Figure S15, Time (min) 240
  remaining at 4 h, 50 µM: 101%
[4]; human, human serum, serum stability, amount remaining, Figure S15, Time (min) 360
  remaining at 6 h, 50 µM: 99%
[4]; human, human serum, serum stability, amount remaining, Figure S15, Time (min) 1440
  remaining at 24 h, 50 µM: 98%
[4]; human, human serum, serum stability, amount remaining, Figure S15, Time (min) 2880
  remaining at 48 h, 50 µM: 96%
[4]; human, human serum, serum stability, remaining intact, after 48 h, 37 °C
  remaining at 48 h, 50 µM: > 95%
Human KOR [5]
  Emax: 30%
Mouse KOR [6]
  Emax: 92 ± 1%
Human KOR [7]
  Emax: 83%
Human KOR M142A
  Emax: 91.7 ± 11.6%
Human KOR H304A [8]
  Emax: 34.5 ± 1.18%
Human KOR I135A
  Emax: 45.8 ± 1.95%
Human KOR WT [9]
  Emax: 35.3 ± 1.13%
Male SWISS mice [10]; 0.4 µmol/kg, time 0.5 h
  CFA-induced inflammatory hyperalgesia (paw withdrawal latency): 4.5 s and 3.8 s and 3.4 s and 4.3 s and 3.3 s and 4.6 s
Male SWISS mice [10]; 0.4 µmol/kg, time 1 h
  CFA-induced inflammatory hyperalgesia (paw withdrawal latency): 4.1 s and 5.3 s and 2.8 s and 3.2 s and 3 s and 2.4 s
Male SWISS mice [10]; 0.4 µmol/kg, time 2 h
  CFA-induced inflammatory hyperalgesia (paw withdrawal latency): 5.2 seconds and 3.9 seconds and 3.8 seconds and 3.4 seconds (2×) and 3.2 seconds
Male SWISS mice [10]; 0.4 µmol/kg, time 3 h
  CFA-induced inflammatory hyperalgesia (paw withdrawal latency): 4.6 seconds and 3.9 seconds and 4.1 seconds and 3.4 seconds (2×) and 2.9 seconds
Male SWISS mice [10]; 0.4 µmol/kg, time 4 h
  CFA-induced inflammatory hyperalgesia (paw withdrawal latency): 4 s and 3.6 s and 3.4 s and 3 s and 3.2 s and 2.7 s
Male SWISS mice [10]; 0.8 µmol/kg, time 0.5 h
  CFA-induced inflammatory hyperalgesia (paw withdrawal latency): 3.8 s and 4.7 s and 5.2 s and 5.9 s and 4 s and 4.4 s
Male SWISS mice [10]; 0.8 µmol/kg, time 1 h
  CFA-induced inflammatory hyperalgesia (paw withdrawal latency): 3.4 seconds and 3.5 seconds (2×) and 4.2 seconds and 3.8 seconds and 3.6 seconds
Male SWISS mice [10]; 0.8 µmol/kg, time 2 h
  CFA-induced inflammatory hyperalgesia (paw withdrawal latency): 2.7 seconds and 3.7 seconds and 3.9 seconds (2×) and 3.4 seconds and 4 seconds
Male SWISS mice [10]; 0.8 µmol/kg, time 3 h
  CFA-induced inflammatory hyperalgesia (paw withdrawal latency): 3.5 seconds (3×) and 3.1 seconds (2×) and 2.9 seconds
Male SWISS mice [10]; 0.8 µmol/kg, time 4 h
  CFA-induced inflammatory hyperalgesia (paw withdrawal latency): 2.6 seconds and 3.4 seconds and 3 seconds and 3.2 seconds and 3.1 seconds (2×)
Male SWISS mice [10]; 0.8 µmol/kg, time BL
  CFA-induced inflammatory hyperalgesia (paw withdrawal latency): 10.2 s and 11.3 s and 9.9 s and 10.1 s and 10.3 s
Male SWISS mice [10]; 1.9 µmol/kg, time 0.5 h
  CFA-induced inflammatory hyperalgesia (paw withdrawal latency): 4.2 s and 5.6 s and 7.4 s and 7.3 s and 7.2 s and 5.3 s
Male SWISS mice [10]; 1.9 µmol/kg, time 1 h
  CFA-induced inflammatory hyperalgesia (paw withdrawal latency): 3.9 seconds and 4.5 seconds (2×) and 6.6 seconds and 5 seconds and 3.5 seconds
Male SWISS mice [10]; 1.9 µmol/kg, time 2 h
  CFA-induced inflammatory hyperalgesia (paw withdrawal latency): 2.9 s and 4.1 s and 4.4 s and 3.4 s and 3.5 s and 3.8 s
Male SWISS mice [10]; 1.9 µmol/kg, time 3 h
  CFA-induced inflammatory hyperalgesia (paw withdrawal latency): 3.5 seconds (2×) and 3.8 seconds and 4.4 seconds and 3.3 seconds and 2.9 seconds
Male SWISS mice [10]; 1.9 µmol/kg, time 4 h
  CFA-induced inflammatory hyperalgesia (paw withdrawal latency): 2.5 seconds and 2.6 seconds and 2.7 seconds (2×) and 2.8 seconds and 3.5 seconds
Male SWISS mice [10]; 1.9 µmol/kg, time BL
  CFA-induced inflammatory hyperalgesia (paw withdrawal latency): 10.6 s and 9.8 s and 10 s and 10.4 s and 10.3 s
Male SWISS mice [10]; after drug administration
  return of thermal nociceptive thresholds to basal values: 2 h
Male SWISS mice [10]; s.c.
  time of peak effect: 15 min
Male SWISS mice [10]; s.c., male mice
  effect on thermal sensitivity / paw withdrawal latencies: significantly reduced thermal sensitivity
Mouse KOR [11]
  Emax: 41%
Mouse KOR, Gαi2
  Emax: 62 ± 6%
Mouse KOR, Gαi3
  Emax: 77 ± 3%
Human MOR
  EC50 (M) MOR: no stimulation up to 10 µM
Human KOR F293A
  Emax: 85.55 ± 0.78%
